Experiments:
PI3-Kα = PI3-Kα (Mus musculus (Mouse), UniProt P42337); assay: PI3-Kα biochemical assay (in vitro kinase assay, fluorescence polarization); details: Ki calculated from IC50, [ATP]=30 uM, Km=25 uM;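 further: Insect-cell-expressed mouse p110/p85 complex converting PI(4,5)P2, product PI(3,4,5)P3 detected by displacing TAMRA-tagged PI(3,4,5)P3 from Grip1 PH domain, lower polarization means more product, room temperature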
mTOR = mTOR (Homo sapiens (Human), UniProt P42345)
[1] = system: PI3-K (phosphorylation of AKT at serine 473) in BT20 cells; assay: PI3-Kα cellular assay (phospho-AKT Ser473 ELISA in BT20 cells); details: Homo sapiens, BT-20, 1 h, read-out: S473 pAKT 10% FBS IC50 (μM);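 further: lysates read by ELISA with TMB colour at 450 nm, cells given 0.5% DMSO vehicle serve as positive control and cell-free wells as negative control, duplicate wells per concentration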

PI3-Kα, sequence (P42337 whole entry, the tested form may be a part): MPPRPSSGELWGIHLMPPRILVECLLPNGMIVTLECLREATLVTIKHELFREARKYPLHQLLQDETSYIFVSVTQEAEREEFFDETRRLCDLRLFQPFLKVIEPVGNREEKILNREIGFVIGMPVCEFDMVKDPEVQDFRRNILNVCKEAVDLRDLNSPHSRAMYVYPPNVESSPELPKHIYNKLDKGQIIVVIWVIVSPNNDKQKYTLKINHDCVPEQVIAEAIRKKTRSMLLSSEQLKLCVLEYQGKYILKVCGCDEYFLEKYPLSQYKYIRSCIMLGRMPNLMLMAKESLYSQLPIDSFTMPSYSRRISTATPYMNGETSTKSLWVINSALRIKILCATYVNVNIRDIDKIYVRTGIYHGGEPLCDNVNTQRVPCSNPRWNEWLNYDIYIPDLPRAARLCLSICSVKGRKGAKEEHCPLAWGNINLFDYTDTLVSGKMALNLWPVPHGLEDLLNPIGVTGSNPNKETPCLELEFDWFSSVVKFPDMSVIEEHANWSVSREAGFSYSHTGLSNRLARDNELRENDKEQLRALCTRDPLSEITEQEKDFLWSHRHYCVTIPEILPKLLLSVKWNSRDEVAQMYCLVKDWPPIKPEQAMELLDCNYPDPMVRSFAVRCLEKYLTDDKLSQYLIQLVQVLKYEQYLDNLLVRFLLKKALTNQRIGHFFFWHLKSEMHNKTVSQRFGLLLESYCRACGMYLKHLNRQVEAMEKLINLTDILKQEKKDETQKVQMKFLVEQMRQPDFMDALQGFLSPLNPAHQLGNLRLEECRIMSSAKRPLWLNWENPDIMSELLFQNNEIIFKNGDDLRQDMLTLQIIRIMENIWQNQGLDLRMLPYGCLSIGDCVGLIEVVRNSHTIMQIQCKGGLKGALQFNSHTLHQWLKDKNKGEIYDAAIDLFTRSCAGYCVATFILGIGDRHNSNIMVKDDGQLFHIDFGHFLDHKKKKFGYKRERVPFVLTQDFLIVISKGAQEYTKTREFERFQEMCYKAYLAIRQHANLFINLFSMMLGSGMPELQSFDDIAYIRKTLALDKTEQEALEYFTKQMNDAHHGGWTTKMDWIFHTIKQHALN
PI3-Kα, sequence (P26450 whole entry partner, the tested form may be a part): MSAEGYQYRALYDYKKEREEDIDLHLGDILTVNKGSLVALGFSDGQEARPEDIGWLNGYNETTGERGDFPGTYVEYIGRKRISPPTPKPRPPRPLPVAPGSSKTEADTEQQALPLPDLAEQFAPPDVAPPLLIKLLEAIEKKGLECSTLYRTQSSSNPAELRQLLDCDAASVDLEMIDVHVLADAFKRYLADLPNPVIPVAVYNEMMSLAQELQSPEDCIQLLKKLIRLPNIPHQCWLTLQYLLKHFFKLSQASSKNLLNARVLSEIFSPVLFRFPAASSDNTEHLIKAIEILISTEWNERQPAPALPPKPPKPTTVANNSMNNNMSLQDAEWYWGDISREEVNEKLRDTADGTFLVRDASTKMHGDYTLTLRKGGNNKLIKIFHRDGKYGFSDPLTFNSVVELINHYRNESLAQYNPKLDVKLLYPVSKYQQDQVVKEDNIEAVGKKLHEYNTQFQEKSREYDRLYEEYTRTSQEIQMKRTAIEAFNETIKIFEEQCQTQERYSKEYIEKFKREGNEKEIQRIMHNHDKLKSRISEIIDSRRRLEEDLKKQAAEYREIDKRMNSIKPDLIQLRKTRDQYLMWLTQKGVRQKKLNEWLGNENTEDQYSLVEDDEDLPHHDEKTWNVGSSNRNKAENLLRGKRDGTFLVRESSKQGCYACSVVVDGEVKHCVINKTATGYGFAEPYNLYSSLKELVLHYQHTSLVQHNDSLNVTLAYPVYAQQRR
mTOR, sequence (P42345 2156-2469): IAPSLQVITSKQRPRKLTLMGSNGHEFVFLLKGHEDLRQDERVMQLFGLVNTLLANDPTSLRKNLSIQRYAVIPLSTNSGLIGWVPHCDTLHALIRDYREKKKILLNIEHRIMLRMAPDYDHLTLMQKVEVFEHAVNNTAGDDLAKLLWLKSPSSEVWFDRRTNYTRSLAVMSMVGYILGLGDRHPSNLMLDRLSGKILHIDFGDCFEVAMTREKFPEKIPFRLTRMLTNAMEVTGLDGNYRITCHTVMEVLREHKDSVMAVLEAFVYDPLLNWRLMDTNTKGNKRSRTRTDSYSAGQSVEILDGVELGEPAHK

| Structure (SMILES) | PI3Ka Ki (PI3-Kα) | Ki (mTOR) | IC50 [1] |
| --- | --- | --- | --- |
| COc1ncc(-c2ccc3ncc4c(c3n2)n(C2CCN(C(=O)CN)CC2)c(=O)n4C)cn1 [Compound 184, 1-(1-glycylpiperidin-4-yl)-8-(2-methoxypyrimidin-5-yl)-3-methyl-1,3-dihydro-2H-imidazo[4,5-c][1,5]naphthyridin-2-one] | 0.00393 µM | 0.0133 µM | 0.184 µM |
| COc1ncc(-c2ccc3ncc4c(c3n2)n(C2CCN(CCO)CC2)c(=O)n4C)cn1 [Compound 185, 1-[1-(2-hydroxyethyl)piperidin-4-yl]-8-(2-methoxypyrimidin-5-yl)-3-methyl-1,3-dihydro-2H-imidazo[4,5-c][1,5]naphthyridin-2-one] | 0.0119 µM | 0.0252 µM | 0.124 µM |
| COc1ncc(-c2ccc3ncc4c(c3n2)n(C2CCN(C(C)=O)CC2)c(=O)n4C)cn1 [Compound 187, 1-(1-acetylpiperidin-4-yl)-8-(2-methoxypyrimidin-5-yl)-3-methyl-1,3-dihydro-2H-imidazo[4,5-c][1,5]naphthyridin-2-one] | 0.00387 µM | 0.00374 µM | 0.0346 µM |
| COc1ncc(-c2ccc3ncc4c(c3n2)n(C2CCNCC2)c(=O)n4C)cn1 [Compound 188, 8-(2-methoxypyrimidin-5-yl)-3-methyl-1-piperidin-4-yl-1,3-dihydro-2H-imidazo[4,5-c][1,5]naphthyridin-2-one] | 0.00815 µM | 0.0504 µM | 0.333 µM |
| CN(C)c1ccc(-c2ccc3ncc4c(c3n2)n(C2CCNCC2)c(=O)n4C)cn1 [Compound 191, 8-[6-(dimethylamino)pyridin-3-yl]-3-methyl-1-piperidin-4-yl-1,3-dihydro-2H-imidazo[4,5-c][1,5]naphthyridin-2-one] | 0.0005 µM | 0.00841 µM | 0.0246 µM |
| N[C@H]1CC[C@H](n2c(=O)[nH]c3cnc4ccc(-c5cnc6ccccc6c5)nc4c32)CC1 [Compound 192, 1-(trans-4-aminocyclohexyl)-8-quinolin-3-yl-1,3-dihydro-2H-imidazo[4,5-c][1,5]naphthyridin-2-one] | 0.00221 µM | 0.00333 µM | 0.402 µM |
| CC(=O)N1CCC(n2c(=O)n(C)c3cnc4ccc(-c5ccc(N(C)C)nc5)nc4c32)CC1 [Compound 195, 1-(1-acetylpiperidin-4-yl)-8-[6-(dimethylamino)pyridin-3-yl]-3-methyl-1,3-dihydro-2H-imidazo[4,5-c][1,5]naphthyridin-2-one] | 0.000391 µM | 0.00172 µM | 0.0172 µM |
| CNC(=O)N1CCC(n2c(=O)n(C)c3cnc4ccc(-c5ccc(N(C)C)nc5)nc4c32)CC1 [Compound 196, 4-{8-[6-(dimethylamino)pyridin-3-yl]-3-methyl-2-oxo-2,3-dihydro-1H-imidazo[4,5-c][1,5]naphthyridin-1-yl}-N-methylpiperidine-1-carboxamide] | 0.00076 µM | 0.00301 µM | 0.0243 µM |
| CN(C)c1ccc(-c2ccc3ncc4c(c3n2)n(C2CCN(C(N)=O)CC2)c(=O)n4C)cn1 [Compound 197, 4-{8-[6-(dimethylamino)pyridin-3-yl]-3-methyl-2-oxo-2,3-dihydro-1H-imidazo[4,5-c][1,5]naphthyridin-1-yl}piperidine-1-carboxamide] | 0.00105 µM | 0.000444 µM | 0.0358 µM |
| CN(C)c1ccc(-c2ccc3ncc4c(c3n2)n(C2CCN(CCO)CC2)c(=O)n4C)cn1 [Compound 198, 8-[6-(dimethylamino)pyridin-3-yl]-1-[1-(2-hydroxyethyl)piperidin-4-yl]-3-methyl-1,3-dihydro-2H-imidazo[4,5-c][1,5]naphthyridin-2-one] | 0.00313 µM | 0.00352 µM | 0.0325 µM |
| Cn1c(=O)n(C2CCOCC2)c2c3nc(-c4cn[nH]c4)ccc3ncc21 [Compound 199, 3-methyl-8-(1H-pyrazol-4-yl)-1-(tetrahydro-2H-pyran-4-yl)-1,3-dihydro-2H-imidazo[4,5-c][1,5]naphthyridin-2-one] | 0.0113 µM | 0.00103 µM | 0.0183 µM |
| Cc1ccc(-c2ccc3ncc4c(c3n2)n(C2CCOCC2)c(=O)n4C)cn1 [Compound 200, 3-methyl-8-(6-methylpyridin-3-yl)-1-(tetrahydro-2H-pyran-4-yl)-1,3-dihydro-2H-imidazo[4,5-c][1,5]naphthyridin-2-one] | 0.00111 µM | 0.00172 µM | 0.0273 µM |
| COc1ncc(-c2ccc3ncc4c(c3n2)n(C2CCOCC2)c(=O)n4C)cn1 [Compound 201, 8-(2-methoxypyrimidin-5-yl)-3-methyl-1-(tetrahydro-2H-pyran-4-yl)-1,3-dihydro-2H-imidazo[4,5-c][1,5]naphthyridin-2-one] | 0.00896 µM | 0.00642 µM | 0.0989 µM |
| Cn1cc(-c2ccc3ncc4c(c3n2)n(C2CCOCC2)c(=O)n4C)cn1 [Compound 203, 3-methyl-8-(1-methyl-1H-pyrazol-4-yl)-1-(tetrahydro-2H-pyran-4-yl)-1,3-dihydro-2H-imidazo[4,5-c][1,5]naphthyridin-2-one] | 0.00517 µM | 0.0723 µM | 0.0718 µM |
| CN(C)c1ccc(-c2ccc3ncc4c(c3n2)n(C2CCOCC2)c(=O)n4C)cn1 [Compound 204, 8-[6-(dimethylamino)pyridin-3-yl]-3-methyl-1-(tetrahydro-2H-pyran-4-yl)-1,3-dihydro-2H-imidazo[4,5-c][1,5]naphthyridin-2-one] | 0.000298 µM | 0.0127 µM | 0.029 µM |
| CN(C)c1ccc(-c2ccc3ncc4c(c3n2)n(C2CCN(C(=O)C(C)(C)C)CC2)c(=O)n4C)cn1 [Compound 205, 8-[6-(dimethylamino)pyridin-3-yl]-1-[1-(2,2-dimethylpropanoyl)piperidin-4-yl]-3-methyl-1,3-dihydro-2H-imidazo[4,5-c][1,5]naphthyridin-2-one] | 0.000281 µM | 0.00438 µM | 0.0214 µM |
| COCCN1CCC(n2c(=O)n(C)c3cnc4ccc(-c5ccc(N(C)C)nc5)nc4c32)CC1 [Compound 206, 8-[6-(dimethylamino)pyridin-3-yl]-1-[1-(2-methoxyethyl)piperidin-4-yl]-3-methyl-1,3-dihydro-2H-imidazo[4,5-c][1,5]naphthyridin-2-one] | 0.000802 µM | 0.00809 µM | 0.0318 µM |
| Cn1c(=O)n(C2CCOCC2)c2c3nc(-c4cnn(CCO)c4)ccc3ncc21 [Compound 208, 8-[1-(2-hydroxyethyl)-1H-pyrazol-4-yl]-3-methyl-1-(tetrahydro-2H-pyran-4-yl)-1,3-dihydro-2H-imidazo[4,5-c][1,5]naphthyridin-2-one] | 0.0244 µM | 0.0442 µM | 0.579 µM |
| Cn1cc(-c2ccc3ncc4c(c3n2)n(C2CCN(CC(N)=O)CC2)c(=O)n4C)cn1 [Compound 211, 2-{4-[3-methyl-8-(1-methyl-1H-pyrazol-4-yl)-2-oxo-2,3-dihydro-1H-imidazo[4,5-c][1,5]naphthyridin-1-yl]piperidin-1-yl}acetamide] | 0.00463 µM | 0.00755 µM | 0.232 µM |
